According to patent US20250195552A1, “METHODS OF USING AVERMECTIN COMPOSITIONS FOR THE TREATMENT OF INFLAMMATORY DISORDERS AND DOSING REGIMENS” (priority 2022, published 2025):
“Also recorded” adds a separate entry of the source. Like-named read-outs stand apart in the source and are kept apart here.

Columns and labels:
focal seizures = details: cited from earlier work
[1] = Ivermectin solubility determination in excipients
Procedure: The solubility assessments were performed by continually adding a known amount of the API into each individual excipient and letting the excipient reach solubility equilibrium via API saturation (visible solid observed). The experiments were conducted at ambient conditions (25° C.) and were left to mix on a stir plate at 500 RPM for at least 72 hours.

[2] = tested on: STAT3 and IkBα phosphorylation in human CD4+ T cells; experiment: Th17-induced STAT3 and IkBα phosphorylation (Western Blot); format: cell-based; details: Th17-skewing conditions, 2 hours
Procedure: The cell lysates were prepared and analyzed by Western Blot. One representative of three different experiments is shown.

[3] = tested on: Monocytes-derived dendritic cells (moDC); experiment: TNF-α and IL-6 secretion in dendritic cells; format: cell-based, human; details: moDC stimulated by Pam2CSK4 and Pam3CSK4, 24 hours, ELISA
Procedure: Monocytes-derived dendritic cells (moDC) were differentiated by culturing purified human monocytes with 25 ng/mL hGM-CSF and 50 ng/mL hTL-4 for 5-7 days to reach full differentiation. […] The supernatants were analyzed for IL-6 and TNF-α by ELISA. Bar graphs represent pooled data from 2-3 experiments.

LPS-induced human PBMCs = experiment: LPS-induced secretion of TNF-α, IL-6 and IL-23 in PBMCs; format: cell-based; details: PBMC, LPS activation for 2 days, ELISA
Procedure: The supernatants were analyzed for TNF-α, IL-6, and IL-23 by ELISA.

C57BL/6 mice = experiment: Experimental autoimmune encephalomyelitis (EAE) model of MS; format: in vivo, mouse; details: 1, 2, 4 mg/kg oral once daily, therapeutic from Day 14 to Day 34
Procedure: Vehicle was 1.6% DMSO in water. […] These were frozen at −20° C. Every 3 to 4 days, one aliquot was thawed and diluted with water to create a fine suspension at 0.8 mg/mL (for 4 mg/kg dosing). Final DMSO concentration was 1.6%. […] Per customer, all dosing formulations were stable for up to 4 days at 4° C. FTY720 stock solution (30 mg/mL in ethanol) was prepared for all ongoing studies. Daily, the FTY720 stock solution was diluted with water to the final dosing concentration of 0.6 mg/mL.
A balanced distribution of mice was confirmed by comparing mean day of onset, average score at EAE onset, average score on Day 14 and average weight on Day 13.
EAE was induced on Day 0 by myelin oligodendrocyte glycoprotein (MOG35-55)/complete Freund's adjuvant (CFA) immunization, followed by pertussis toxin (PTX) injections on Days O and 1. Treatment was therapeutic, starting on Day 14. […] Treatment continued through Day 34. Mice were observed through the end of the study, Day 35.
Clinical scores were assessed as follows: 1=limp tail, 2=partial hind leg paralysis, 3=complete hind leg paralysis, 4=complete hindleg and partial front leg paralysis; 5=moribund.

Sprague-Dawley rats = experiment: Animal model of infantile spasms (NMDA-induced); format: in vivo, rat; details: 2 and 4 mg/kg i.p. daily P10-P15; p<0.05
Description: A two-stage model of infantile spasms was developed (FIG. 23A). Pregnant Sprague-Dawley rats receive two injections of betamethasone on gestational (G) day 15. Offspring of those pregnancies are used for experiments during infancy, postnatal days (P) 10-15. Spasms are induced by i.p. injection of N-methyl-D-aspartic acid (NMDA), which is graded depending on the postnatal age of the subjects.
Days of dosing were P10, P11, P12, P13, P14 and P15.

[4] = tested on: Th17-skewed human CD4+ T cells; experiment: Cytokine secretion in Th17-skewed CD4+ T cells (ELISA); format: cell-based
Procedure: The supernatants were analyzed for IL-17, TL-21 and IFN-γ by ELISA.

human PBMCs = experiment: IL-17 and IFN-γ secretion in PBMCs stimulated by anti-CD3/CD28 in vitro; format: cell-based; details: anti-CD3/CD28 stimulation, 48 hours, ELISA
Procedure: The supernatants were analyzed for IL-17 and IFN-γ by ELISA. One representative of three different experiments is shown.

[5] = tested on: human CD4+ T cells activated under Th17 skewing conditions; experiment: FoxP3 expression (RT-PCR) and percentage of FoxP3+ T cells (Flow Cytometry); format: cell-based; details: 1.5 mM of ivermectin, 5 days
Procedure: FoxP3, IL-17A and RORc mRNA expression levels were tested by RT-PCR (A). The percentage of FoxP3^+ T cells was determined by Flow Cytometry by using intra-cellular staining with PE-conjugated anti-Foxp3 antibody (B).

PBMCs of human subjects = experiment: Phase 1: IL-17 secretion in PBMCs stimulated ex vivo after oral administration; details: oral 10-120 mg, significant at 80 and 120 mg SAD and at all MAD doses, anti-CD3/CD28 48 hrs
Procedure: The supernatants were analyzed for IL-17 by ELISA.

[6] = tested on: TLR-induced human monocytes; experiment: IL-1β secretion in TLR-induced monocytes; format: cell-based; details: induced by LPS, Pam2CSK4 and Pam3CSK4 (100 ng/ml), 24 hours, ELISA
Procedure: The supernatants were analyzed for IL-1β by ELISA.

[7] = Pharmacokinetics of Ivermectin B1a in SD rat plasma after IV or oral administration
Procedure: Thirty-six male Sprague Dawley rats were randomly assigned into four groups, with nine male rats in each group. All animals in all groups are fasted overnight prior to the experimental date.
Blood samples were collected from 6 of 9 animals per group at 0.5, 1, 2, 3, 4, 6, 8, 24, 72, 120, 168 hours post-dose.

[8] = single IV 2 mg/kg, fasting male SD rats, n = 6

SMILES: CC[C@@H](C(N)=O)N1CCCC1=O [KEPPRA, Leviteracetam]
- Placebo-adjusted >50% Focal Seizure Reduction (focal seizures; 3000 mg): 29%
- Placebo-adjusted Median Reduction in Focal Seizure Frequency (focal seizures; 3000 mg): 23-31%

SMILES: COC[C@@H](NC(C)=O)C(=O)NCc1ccccc1 [VIMPAT, Lacosamide]
- Placebo-adjusted >50% Focal Seizure Reduction (focal seizures; 400 mg): 17%
- Placebo-adjusted Median Reduction in Focal Seizure Frequency (focal seizures; 400 mg): 15-29%

SMILES: Cc1cc(N2CCc3cc(F)ccc3C2)cc(C)c1NC(=O)CC(C)(C)C [XEN1101]
- Placebo-adjusted >50% Focal Seizure Reduction (focal seizures; 25 mg): 40%
- Placebo-adjusted Median Reduction in Focal Seizure Frequency (focal seizures; 25 mg): 35%

SMILES: CCC(C)C1OC2(CCC1C)CC1CC(CC=C(C)C(OC3CC(OC)C(OC4CC(OC)C(O)C(C)O4)C(C)O3)C(C)C=CC=C3COC4C(O)C(C)=CC(C(=O)O1)C34O)O2 (stereo not drawn) [Ivermectin]
- Solubility ([1]; in Capryol 90, 25° C.): 150.92 mg/g
- Solubility ([1]; in Fractionated Coconut oil, 25° C.): 16.55 mg/g
- Solubility ([1]; in Glycerin, 25° C.): <0.1 mg/g
- Solubility ([1]; in Kolliphor EL, 25° C.): 95.85 mg/g
- Solubility ([1]; in Labrafil M 2125 CS, 25° C.): 35.32 mg/g
- Solubility ([1]; in Labrasol ALF, 25° C.): 126.36 mg/g
- Solubility ([1]; in LauroglycolTM FCC, 25° C.): 71.96 mg/g
- Solubility ([1]; in Maisine CC, 25° C.): 60.17 mg/g
- Solubility ([1]; in Masester E8120, 25° C.): 164.06 mg/g
- Solubility ([1]; in Medium Chain Triglyceride, 25° C.): 16.49 mg/g
- Solubility ([1]; in Oleic acid, 25° C.): 48.58 mg/g
- Solubility ([1]; in Olive oil, 25° C.): 4.71 mg/g
- Solubility ([1]; in PEG 400, 25° C.): 112.92 mg/g
- Solubility ([1]; in Propylene glycol, 25° C.): 25.61 mg/g
- Solubility ([1]; in Soybean oil, 25° C.): 6.72 mg/g
- Solubility ([1]; in Span 20, 25° C.): 97.66 mg/g
- Solubility ([1]; in Span 80, 25° C.): 54.04 mg/g
- Solubility ([1]; in Triacetin, 25° C.): 58.75 mg/g
- Solubility ([1]; in Tween 80, 25° C.): 88.26 mg/g
- Solubility ([1]; in Vitamin E TPGS, table title 25° C., text: conducted at 40° C.): 82.98 mg/g
- STAT3 phosphorylation [2]: dose-dependent reduction
- inhibitor molecule protein (IkB)α phosphorylation [2]: dose-dependent reduction
- IL-6 secretion [3]: significantly and in a dose-dependent manner down-regulates; also recorded: dose dependent decrease
- TNF-α secretion [3]: significantly and in a dose-dependent manner down-regulates; also recorded: dose dependent decrease
- EC50 (LPS-induced human PBMCs; read-out: EC50, decrease of IL-6): 1300 nM
- EC50 (LPS-induced human PBMCs; read-out: EC50, decrease of IL-23): 470 nM
- EC50 (LPS-induced human PBMCs; read-out: EC50, decrease of TNF-α): 1400 nM
- limb paralysis (clinical score) in EAE model of MS (C57BL/6 mice): significantly downregulates limb paralysis
- occurrence (number) of spasms triggered on P15 vs vehicle controls (Sprague-Dawley rats): significantly suppressed occurrence of spasms; also recorded: significantly fewer spasms
- EC50 ([4]; Th17-skewing conditions, additional experiment (FIG. 6B), read-out: EC, inhibition of CXCL13 secretion): 378 nM
- EC50 ([4]; anti-CD3/CD28 + IL-1β + TGF-β (Th17-skewing), 48 hours, ELISA, read-out: EC50, inhibition of IFN-γ secretion): 541 nM
- EC50 ([4]; anti-CD3/CD28 + IL-1β + TGF-β (Th17-skewing), 48 hours, ELISA, read-out: EC50, inhibition of IL-17 secretion): 450 nM
- EC50 ([4]; anti-CD3/CD28 + IL-1β + TGF-β (Th17-skewing), 48 hours, ELISA, read-out: EC50, inhibition of IL-21 secretion): 364 nM
- EC50 (human PBMCs; read-out: EC50, decrease of IFN-γ): 987 nM
- EC50 (human PBMCs; read-out: EC50, decrease of IL-17): 416 nM
- increase in the percentage of Foxp3+ T cells ([5]; Flow Cytometry): 50%
- FoxP3 mRNA levels ([5]; RT-PCR): up-regulation
- IL-17A mRNA expression ([5]; RT-PCR): decreased
- RORc mRNA expression ([5]; RT-PCR): decreased
- ability of T cells to secrete IL-17 in response to TCR stimulation ex vivo (PBMCs of human subjects): down-regulates
- IL-1β secretion [6]: significantly down-regulates; also recorded: reduced IL-1β in a dose-dependent manner
- AUC(0-t) [7, 8]: 8259.31 ng·h/mL
- AUC(0-∞) [7, 8]: 8273.53 ng·h/mL
- Cmax [7, 8]: 1722.67 ng/mL
- MRT(0-t) [7, 8]: 10.58 h
- MRT(0-∞) [7, 8]: 10.81 h
- T1/2 [7, 8]: 14.82 h
- T1/2 ([7]; single IV injection 2 mg/kg, male SD rats with fasting): 14.82 ± 0.72 h

SMILES: CCC[C@@H]1CC(=O)N([C@@H](CC)C(N)=O)C1 [BRIVIACT, Brivaracetam]
- Placebo-adjusted >50% Focal Seizure Reduction (focal seizures; 200 mg): 18%
- Placebo-adjusted Median Reduction in Focal Seizure Frequency (focal seizures; 200 mg): 26%

SMILES: NC(=O)N1c2ccccc2C[C@H](O)c2ccccc21 [APTIOM, Eslicarbazepine]
- Placebo-adjusted >50% Focal Seizure Reduction (focal seizures; 1200 mg): 20%
- Placebo-adjusted Median Reduction in Focal Seizure Frequency (focal seizures; 2000 mg): 14-24%

SMILES: NC(=O)O[C@@H](Cn1ncnn1)c1ccccc1Cl [XCOPRI, Cenobamate]
- Placebo-adjusted >50% Focal Seizure Reduction (focal seizures; 400 mg): 39%
- Placebo-adjusted Median Reduction in Focal Seizure Frequency (focal seizures; 4200 mg): 31%
